Assay results published in patent publication US20160038468A1 (priority 2013, published 2016).
≈ marks a conversion by molar mass, not a printed value. Where two headings read alike, the source gives them in different places.

Key:
Assay type in all cases: cell-based
[1] = test system: Prevotella bivia; assay: Agar dilution MIC (CLSI), Prevotella bivia vaginal isolates; conditions: for MIC: read-out: Minimal Inhibitory Concentration (MIC)
[2] = test system: Prevotella amnii; assay: Agar dilution MIC (CLSI), Prevotella amnii vaginal isolates; conditions: for Number of strains with indicated MIC: 33 samples; for MIC: read-out: Minimal Inhibitory Concentration (MIC)
[3] = test system: Prevotella timonensis; assay: Agar dilution MIC (CLSI), Prevotella timonensis vaginal isolates; conditions: for MIC: read-out: Minimal Inhibitory Concentration (MIC); for Number of strains with indicated MIC: 33 samples
[4] = Hoylesella timonensis, # tested 33

CO[C@H]1/C=C/O[C@@]2(C)Oc3c(C)c(O)c4c(O)c(c5c(nc6cc(C)ccn65)c4c3C2=O)NC(=O)/C(C)=C\C=C\[C@H](C)[C@H](O)[C@@H](C)[C@@H](O)[C@@H](C)[C@H](OC(C)=O)[C@@H]1C [Rifaximin]
MIC ([1]; Prevotella bivia, isolate 601433 19): 0.25 µg/mL (≈ 0.318 µM)
MIC ([1]; Prevotella bivia, isolate 601449 E): 0.5 µg/mL (≈ 0.636 µM)
MIC ([1]; Prevotella bivia, isolate 601453 A): 0.25 µg/mL (≈ 0.318 µM)
MIC ([1]; Prevotella bivia, isolate 601455 D1): 0.25 µg/mL (≈ 0.318 µM)
MIC ([1]; Prevotella bivia, isolate 601458 16): 0.25 µg/mL (≈ 0.318 µM)
MIC50 ([1]; Prevotella bivia, # tested 34): 0.25 µg/mL (≈ 0.318 µM)
MIC90 ([1]; Prevotella bivia, # tested 34): 0.5 µg/mL (≈ 0.636 µM)
Susceptible ([1]; number (%) of isolates, # tested 34): 34 (100) μg/ml
MIC Range ([2]; # tested 33): 0.015 to 0.03 µg/mL
Number of strains with indicated MIC ([2]; MIC 0.015 μg/ml): 19
Number of strains with indicated MIC ([2]; MIC 0.03 μg/ml): 14
MIC ([2]; Prevotella amnii, isolate 601203 4): 0.015 µg/mL (≈ 0.0191 µM)
MIC ([2]; Prevotella amnii, isolate 601256 11): 0.03 µg/mL (≈ 0.0382 µM)
MIC ([2]; Prevotella amnii, isolate 601258 25): 0.015 µg/mL (≈ 0.0191 µM)
MIC ([2]; Prevotella amnii, isolate 601261 E): 0.015 µg/mL (≈ 0.0191 µM)
MIC ([2]; Prevotella amnii, isolate 601266 20): 0.03 µg/mL (≈ 0.0382 µM)
MIC ([2]; Prevotella amnii, isolate 601278 10): 0.015 µg/mL (≈ 0.0191 µM)
MIC ([2]; Prevotella amnii, isolate 601287 HH): 0.015 µg/mL (≈ 0.0191 µM)
MIC ([2]; Prevotella amnii, isolate 601291 41): 0.015 µg/mL (≈ 0.0191 µM)
MIC ([2]; Prevotella amnii, isolate 601293 29): 0.03 µg/mL (≈ 0.0382 µM)
MIC ([2]; Prevotella amnii, isolate 601305 A): 0.03 µg/mL (≈ 0.0382 µM)
MIC ([2]; Prevotella amnii, isolate 601311 K): 0.03 µg/mL (≈ 0.0382 µM)
MIC ([2]; Prevotella amnii, isolate 601314 19): 0.03 µg/mL (≈ 0.0382 µM)
MIC ([2]; Prevotella amnii, isolate 601318 G): 0.03 µg/mL (≈ 0.0382 µM)
MIC ([2]; Prevotella amnii, isolate 601336 33): 0.015 µg/mL (≈ 0.0191 µM)
MIC ([2]; Prevotella amnii, isolate 601340 37): 0.015 µg/mL (≈ 0.0191 µM)
MIC ([2]; Prevotella amnii, isolate 601341 H): 0.015 µg/mL (≈ 0.0191 µM)
MIC ([2]; Prevotella amnii, isolate 601350 A): 0.015 µg/mL (≈ 0.0191 µM)
MIC ([2]; Prevotella amnii, isolate 601365 6): 0.015 µg/mL (≈ 0.0191 µM)
MIC ([2]; Prevotella amnii, isolate 601368 24): 0.015 µg/mL (≈ 0.0191 µM)
MIC ([2]; Prevotella amnii, isolate 601369 13): 0.03 µg/mL (≈ 0.0382 µM)
MIC ([2]; Prevotella amnii, isolate 601375 L): 0.015 µg/mL (≈ 0.0191 µM)
MIC ([2]; Prevotella amnii, isolate 601377 9): 0.03 µg/mL (≈ 0.0382 µM)
MIC ([2]; Prevotella amnii, isolate 601379 24): 0.03 µg/mL (≈ 0.0382 µM)
MIC ([2]; Prevotella amnii, isolate 601388 G): 0.03 µg/mL (≈ 0.0382 µM)
MIC ([2]; Prevotella amnii, isolate 601399 10): 0.015 µg/mL (≈ 0.0191 µM)
MIC ([2]; Prevotella amnii, isolate 601405 A): 0.015 µg/mL (≈ 0.0191 µM)
MIC ([2]; Prevotella amnii, isolate 601411 L): 0.03 µg/mL (≈ 0.0382 µM)
MIC ([2]; Prevotella amnii, isolate 601413 10): 0.015 µg/mL (≈ 0.0191 µM)
MIC ([2]; Prevotella amnii, isolate 601418 27): 0.03 µg/mL (≈ 0.0382 µM)
MIC ([2]; Prevotella amnii, isolate 601426 A): 0.015 µg/mL (≈ 0.0191 µM)
MIC ([2]; Prevotella amnii, isolate 601430 14): 0.015 µg/mL (≈ 0.0191 µM)
MIC ([2]; Prevotella amnii, isolate 601434 13): 0.015 µg/mL (≈ 0.0191 µM)
MIC ([2]; Prevotella amnii, isolate 601458 13): 0.03 µg/mL (≈ 0.0382 µM)
MIC50 ([2]; Prevotella amnii, # tested 33): 0.015 µg/mL (≈ 0.0191 µM)
MIC90 ([2]; Prevotella amnii, # tested 33): 0.03 µg/mL (≈ 0.0382 µM)
MIC Range ([3]; # tested 33): 0.00375 to 0.06 µg/mL
MIC ([3]; Hoylesella timonensis, isolate 301212 10): 0.00375 µg/mL (≈ 0.00477 µM)
MIC ([3]; Hoylesella timonensis, isolate 601080 5): 0.0075 µg/mL (≈ 0.00954 µM)
MIC ([3]; Hoylesella timonensis, isolate 601088 15): 0.015 µg/mL (≈ 0.0191 µM)
MIC ([3]; Hoylesella timonensis, isolate 601093 24): 0.015 µg/mL (≈ 0.0191 µM)
MIC ([3]; Hoylesella timonensis, isolate 601097 S): 0.015 µg/mL (≈ 0.0191 µM)
MIC ([3]; Hoylesella timonensis, isolate 601098 B): 0.015 µg/mL (≈ 0.0191 µM)
MIC ([3]; Hoylesella timonensis, isolate 601157 19): 0.015 µg/mL (≈ 0.0191 µM)
MIC ([3]; Hoylesella timonensis, isolate 601167 13): 0.06 µg/mL (≈ 0.0763 µM)
MIC ([3]; Hoylesella timonensis, isolate 601170 13): 0.015 µg/mL (≈ 0.0191 µM)
MIC ([3]; Hoylesella timonensis, isolate 601175 J): 0.015 µg/mL (≈ 0.0191 µM)
MIC ([3]; Hoylesella timonensis, isolate 601178 19): 0.015 µg/mL (≈ 0.0191 µM)
MIC ([3]; Hoylesella timonensis, isolate 601194 9B): 0.0075 µg/mL (≈ 0.00954 µM)
MIC ([3]; Hoylesella timonensis, isolate 601214 A): 0.015 µg/mL (≈ 0.0191 µM)
MIC ([3]; Hoylesella timonensis, isolate 601226 C): 0.015 µg/mL (≈ 0.0191 µM)
MIC ([3]; Hoylesella timonensis, isolate 601234 B): 0.015 µg/mL (≈ 0.0191 µM)
MIC ([3]; Hoylesella timonensis, isolate 601245 16): 0.015 µg/mL (≈ 0.0191 µM)
MIC ([3]; Hoylesella timonensis, isolate 601252 B): 0.015 µg/mL (≈ 0.0191 µM)
MIC ([3]; Hoylesella timonensis, isolate 601255 17): 0.015 µg/mL (≈ 0.0191 µM)
MIC ([3]; Hoylesella timonensis, isolate 601266 18): 0.015 µg/mL (≈ 0.0191 µM)
MIC ([3]; Hoylesella timonensis, isolate 601278 12): 0.015 µg/mL (≈ 0.0191 µM)
MIC ([3]; Hoylesella timonensis, isolate 601281 22): 0.015 µg/mL (≈ 0.0191 µM)
MIC ([3]; Hoylesella timonensis, isolate 601287 H): 0.015 µg/mL (≈ 0.0191 µM)
MIC ([3]; Hoylesella timonensis, isolate 601293 13): 0.015 µg/mL (≈ 0.0191 µM)
MIC ([3]; Hoylesella timonensis, isolate 601311 B): 0.015 µg/mL (≈ 0.0191 µM)
MIC ([3]; Hoylesella timonensis, isolate 601367 E): 0.015 µg/mL (≈ 0.0191 µM)
MIC ([3]; Hoylesella timonensis, isolate 601370 13): 0.03 µg/mL (≈ 0.0382 µM)
MIC ([3]; Hoylesella timonensis, isolate 601388 S): 0.015 µg/mL (≈ 0.0191 µM)
MIC ([3]; Hoylesella timonensis, isolate 601401 J): 0.015 µg/mL (≈ 0.0191 µM)
MIC ([3]; Hoylesella timonensis, isolate 601411 S): 0.015 µg/mL (≈ 0.0191 µM)
MIC ([3]; Hoylesella timonensis, isolate 601414 O): 0.03 µg/mL (≈ 0.0382 µM)
MIC ([3]; Hoylesella timonensis, isolate 601422 39): 0.015 µg/mL (≈ 0.0191 µM)
MIC ([3]; Hoylesella timonensis, isolate 601429 11): 0.015 µg/mL (≈ 0.0191 µM)
MIC ([3]; Hoylesella timonensis, isolate 601459 21): 0.015 µg/mL (≈ 0.0191 µM)
MIC50 [3, 4]: 0.015 µg/mL (≈ 0.0191 µM)
MIC90 [3, 4]: 0.015 µg/mL (≈ 0.0191 µM)
Number of strains with indicated MIC ([3]; MIC 0.00375 μg/ml): 1
Number of strains with indicated MIC ([3]; MIC 0.0075 μg/ml): 2
Number of strains with indicated MIC ([3]; MIC 0.015 μg/ml): 27
Number of strains with indicated MIC ([3]; MIC 0.03 μg/ml): 2
Number of strains with indicated MIC ([3]; MIC 0.06 μg/ml): 1
Susceptible ([3]; number (%) of isolates, # tested 33): 33 (100) μg/ml
